Assay results from ChEMBL document CHEMBL6078640, “Trivalent oleanolic acid-glucose conjugates: Synthesis and efficacy against Influenza A virus” (Eur J Med Chem, 2024).

Assays:
Influenza A virus [1] = assay: Antiviral activity against influenza A virus A/WSN/33(H1N1) infected in MDCK cells assessed as inhibition of viral-induced cytopathic effect pretreated with cells followed by viral infection and measured after 40 hrs by fluorescence based microplate reader analysis; type: functional, organism-based
MDCK = assay: Cytotoxicity against dog MDCK cells assessed as reduction in cell viability at 100 uM incubated for 40 hrs by celltiter-glo assay; type: toxicity, cell-based, Canis lupus familiaris
Influenza A virus [2] = assay: Antiviral activity against Influenza A virus H1N1 infected in MDCK cells assessed as inhibition of viral growth at 100 uM relative to control; type: functional
[3] = Cytotoxicity against dog MDCK cells assessed as reduction in cell viability incubated for 40 hrs by celltiter-glo assay; type: toxicity, cell-based, Canis lupus familiaris
[4] = Selectivity index, ratio of CC50 for dog MDCK cells to IC50 for influenza A virus A/WSN/33(H1N1) infected in MDCK cells; type: toxicity, cell-based; conditions: read-out: Selectivity Index

In the case of `CC1(C)CC[C@]2(C(=O)NCc3cn([C@@H]4O[C@H](CO)[C@@H](O)[C@H](O)[C@H]4O)nn3)CC[C@]3(C)C(=CC[C@@H]4[C@@]5(C)CC[C@H](OC(=O)NCCc6cn(Cc7cc(Cn8cc(CCNC(=O)O[C@H]9CC[C@]%10(C)[C@H]%11CC=C%12[C@@H]%13CC(C)(C)CC[C@]%13(C(=O)NCc%13cn([C@@H]%14O[C@H](CO)[C@@H](O)[C@H](O)[C@H]%14O)nn%13)CC[C@@]%12(C)[C@]%11(C)CC[C@H]%10C9(C)C)nn8)cc(Cn8cc(CCNC(=O)O[C@H]9CC[C@]%10(C)[C@H]%11CC=C%12[C@@H]%13CC(C)(C)CC[C@]%13(C(=O)NCc%13cn([C@@H]%14O[C@H](CO)[C@@H](O)[C@H](O)[C@H]%14O)nn%13)CC[C@@]%12(C)[C@]%11(C)CC[C@H]%10C9(C)C)nn8)c7)nn6)C(C)(C)[C@@H]5CC[C@]43C)[C@@H]2C1`, the IC50 (Influenza A virus [1]) is reported as 20.1 µM, the Activity (MDCK) is reported as “Non-toxic” and the inhibition at 100 µM (Influenza A virus [2]) is reported as over 75%. The CC50 at 40 h [3] was over 100 µM and the selectivity ratio [4] was over 4.97.

With `CC(=O)OC[C@H]1O[C@@H](n2cc(CNC(=O)[C@]34CCC(C)(C)C[C@H]3C3=CC[C@@H]5[C@@]6(C)CC[C@H](OC(=O)NCCCc7cn(Cc8cc(Cn9cc(CCCNC(=O)O[C@H]%10CC[C@]%11(C)[C@H]%12CC=C%13[C@@H]%14CC(C)(C)CC[C@]%14(C(=O)NCc%14cn([C@@H]%15O[C@H](COC(C)=O)[C@@H](OC(C)=O)[C@H](OC(C)=O)[C@H]%15OC(C)=O)nn%14)CC[C@@]%13(C)[C@]%12(C)CC[C@H]%11C%10(C)C)nn9)cc(Cn9cc(CCCNC(=O)O[C@H]%10CC[C@]%11(C)[C@H]%12CC=C%13[C@@H]%14CC(C)(C)CC[C@]%14(C(=O)NCc%14cn([C@@H]%15O[C@H](COC(C)=O)[C@@H](OC(C)=O)[C@H](OC(C)=O)[C@H]%15OC(C)=O)nn%14)CC[C@@]%13(C)[C@]%12(C)CC[C@H]%11C%10(C)C)nn9)c8)nn7)C(C)(C)[C@@H]6CC[C@@]5(C)[C@]3(C)CC4)nn2)[C@H](OC(C)=O)[C@@H](OC(C)=O)[C@@H]1OC(C)=O` the IC50 (Influenza A virus [1]) was 6.39 µM, the Activity (MDCK) was “Non-toxic” and the inhibition at 100 µM (Influenza A virus [2]) was over 75%. It also gave a CC50 at 40 h [3] of over 100 µM and a selectivity ratio [4] of over 15.6.

For `CC(=O)OC[C@H]1O[C@@H](n2cc(CNC(=O)[C@]34CCC(C)(C)C[C@H]3C3=CC[C@@H]5[C@@]6(C)CC[C@H](OC(=O)NCc7cn(CC(CO)(Cn8cc(CNC(=O)O[C@H]9CC[C@]%10(C)[C@H]%11CC=C%12[C@@H]%13CC(C)(C)CC[C@]%13(C(=O)NCc%13cn([C@@H]%14O[C@H](COC(C)=O)[C@@H](OC(C)=O)[C@H](OC(C)=O)[C@H]%14OC(C)=O)nn%13)CC[C@@]%12(C)[C@]%11(C)CC[C@H]%10C9(C)C)nn8)Cn8cc(CNC(=O)O[C@H]9CC[C@]%10(C)[C@H]%11CC=C%12[C@@H]%13CC(C)(C)CC[C@]%13(C(=O)NCc%13cn([C@@H]%14O[C@H](COC(C)=O)[C@@H](OC(C)=O)[C@H](OC(C)=O)[C@H]%14OC(C)=O)nn%13)CC[C@@]%12(C)[C@]%11(C)CC[C@H]%10C9(C)C)nn8)nn7)C(C)(C)[C@@H]6CC[C@@]5(C)[C@]3(C)CC4)nn2)[C@H](OC(C)=O)[C@@H](OC(C)=O)[C@@H]1OC(C)=O`, the IC50 (Influenza A virus [1]) was 70.4 µM, the Activity (MDCK) was “Non-toxic” and the inhibition at 100 µM (Influenza A virus [2]) was over 75%. The CC50 at 40 h [3] was over 100 µM and the selectivity ratio [4] was over 1.42.

With `CC1(C)CC[C@]2(C(=O)NCc3cn([C@@H]4O[C@H](CO)[C@@H](O)[C@H](O)[C@H]4O)nn3)CC[C@]3(C)C(=CC[C@@H]4[C@@]5(C)CC[C@H](OC(=O)NCCCc6cn(CC(CO)(Cn7cc(CCCNC(=O)O[C@H]8CC[C@]9(C)[C@H]%10CC=C%11[C@@H]%12CC(C)(C)CC[C@]%12(C(=O)NCc%12cn([C@@H]%13O[C@H](CO)[C@@H](O)[C@H](O)[C@H]%13O)nn%12)CC[C@@]%11(C)[C@]%10(C)CC[C@H]9C8(C)C)nn7)Cn7cc(CCCNC(=O)O[C@H]8CC[C@]9(C)[C@H]%10CC=C%11[C@@H]%12CC(C)(C)CC[C@]%12(C(=O)NCc%12cn([C@@H]%13O[C@H](CO)[C@@H](O)[C@H](O)[C@H]%13O)nn%12)CC[C@@]%11(C)[C@]%10(C)CC[C@H]9C8(C)C)nn7)nn6)C(C)(C)[C@@H]5CC[C@]43C)[C@@H]2C1` the IC50 (Influenza A virus [1]) was 3.93 µM, the Activity (MDCK) was “Non-toxic” and the inhibition at 100 µM (Influenza A virus [2]) was over 75%. It also gave a CC50 at 40 h [3] of over 100 µM and a selectivity ratio [4] of over 25.5.

With `CC(=O)OC[C@H]1O[C@@H](n2cc(CNC(=O)[C@]34CCC(C)(C)C[C@H]3C3=CC[C@@H]5[C@@]6(C)CC[C@H](OC(=O)NCCCCCc7cn(Cc8cc(Cn9cc(CCCCCNC(=O)O[C@H]%10CC[C@]%11(C)[C@H]%12CC=C%13[C@@H]%14CC(C)(C)CC[C@]%14(C(=O)NCc%14cn([C@@H]%15O[C@H](COC(C)=O)[C@@H](OC(C)=O)[C@H](OC(C)=O)[C@H]%15OC(C)=O)nn%14)CC[C@@]%13(C)[C@]%12(C)CC[C@H]%11C%10(C)C)nn9)cc(Cn9cc(CCCCCNC(=O)O[C@H]%10CC[C@]%11(C)[C@H]%12CC=C%13[C@@H]%14CC(C)(C)CC[C@]%14(C(=O)NCc%14cn([C@@H]%15O[C@H](COC(C)=O)[C@@H](OC(C)=O)[C@H](OC(C)=O)[C@H]%15OC(C)=O)nn%14)CC[C@@]%13(C)[C@]%12(C)CC[C@H]%11C%10(C)C)nn9)c8)nn7)C(C)(C)[C@@H]6CC[C@@]5(C)[C@]3(C)CC4)nn2)[C@H](OC(C)=O)[C@@H](OC(C)=O)[C@@H]1OC(C)=O` the IC50 (Influenza A virus [1]) was 52.9 µM, the Activity (MDCK) was “Non-toxic” and the inhibition at 100 µM (Influenza A virus [2]) was over 75%. The CC50 at 40 h [3] was over 100 µM and the selectivity ratio [4] was over 1.89.

With `CCOC(=O)C1=C[C@@H](OC(CC)CC)[C@H](NC(C)=O)[C@@H](N)C1.O=P(O)(O)O` [OSELTAMIVIR PHOSPHATE] the IC50 (Influenza A virus [1]) was 5.47 µM, the Activity (MDCK) was “Non-toxic” and the CC50 at 40 h [3] was over 100 µM. It also gave a selectivity ratio [4] of over 18.3.

With `CC1(C)CC[C@]2(C(=O)NCc3cn([C@@H]4O[C@H](CO)[C@@H](O)[C@H](O)[C@H]4O)nn3)CC[C@]3(C)C(=CC[C@@H]4[C@@]5(C)CC[C@H](OC(=O)NCCc6cn(CC(CO)(Cn7cc(CCNC(=O)O[C@H]8CC[C@]9(C)[C@H]%10CC=C%11[C@@H]%12CC(C)(C)CC[C@]%12(C(=O)NCc%12cn([C@@H]%13O[C@H](CO)[C@@H](O)[C@H](O)[C@H]%13O)nn%12)CC[C@@]%11(C)[C@]%10(C)CC[C@H]9C8(C)C)nn7)Cn7cc(CCNC(=O)O[C@H]8CC[C@]9(C)[C@H]%10CC=C%11[C@@H]%12CC(C)(C)CC[C@]%12(C(=O)NCc%12cn([C@@H]%13O[C@H](CO)[C@@H](O)[C@H](O)[C@H]%13O)nn%12)CC[C@@]%11(C)[C@]%10(C)CC[C@H]9C8(C)C)nn7)nn6)C(C)(C)[C@@H]5CC[C@]43C)[C@@H]2C1` the IC50 (Influenza A virus [1]) was 3.39 µM, the Activity (MDCK) was “Non-toxic” and the CC50 at 40 h [3] was over 100 µM. The selectivity ratio [4] was over 29.5.

For `CC1(C)CC[C@]2(C(=O)NCc3cn([C@@H]4O[C@H](CO)[C@@H](O)[C@H](O)[C@H]4O)nn3)CC[C@]3(C)C(=CC[C@@H]4[C@@]5(C)CC[C@H](OC(=O)NCCCc6cn(Cc7cc(Cn8cc(CCCNC(=O)O[C@H]9CC[C@]%10(C)[C@H]%11CC=C%12[C@@H]%13CC(C)(C)CC[C@]%13(C(=O)NCc%13cn([C@@H]%14O[C@H](CO)[C@@H](O)[C@H](O)[C@H]%14O)nn%13)CC[C@@]%12(C)[C@]%11(C)CC[C@H]%10C9(C)C)nn8)cc(Cn8cc(CCCNC(=O)O[C@H]9CC[C@]%10(C)[C@H]%11CC=C%12[C@@H]%13CC(C)(C)CC[C@]%13(C(=O)NCc%13cn([C@@H]%14O[C@H](CO)[C@@H](O)[C@H](O)[C@H]%14O)nn%13)CC[C@@]%12(C)[C@]%11(C)CC[C@H]%10C9(C)C)nn8)c7)nn6)C(C)(C)[C@@H]5CC[C@]43C)[C@@H]2C1`, the IC50 (Influenza A virus [1]) was 43.9 µM, the Activity (MDCK) was “Non-toxic” and the inhibition at 100 µM (Influenza A virus [2]) was over 75%. The CC50 at 40 h [3] was over 100 µM and the selectivity ratio [4] was over 2.28.
